We go through eight molecules from patent US12448388B2, “PRMT5 inhibitors and uses thereof” (Gilead Sciences, Inc., priority 2023, dated 2025).

Each structure is given as a SMILES string. Like-named read-outs stand apart in the source and are kept apart here.

For series [1], the system named is BxPC-3 (pancreas, adenocarcinoma; MTAP-Deleted). Put plainly: In vitro cell viability assay (CellTiter-Glo, 9 days), BxPC-3. Format: cell-based. The following applies: Homo sapiens, BXPC-3, 216 h, 9-day treatment. The procedure:
Some Compounds of the Disclosure were tested in Calu-6 (Vendor: ATCC; Cat #HTB-56; Description: lung, adenocarcinoma), LU99 (Vendor: JCRB; Cat #JCRB0080; Description: lung, giant cell carcinoma), SW780 (Vendor: ATCC; Cat #CRL-2169; Description: bladder, urothelial carcinoma), and BxPC-3 (Vendor: ATCC; Cat #CRL-1687; Description: pancreas, adenocarcinoma) cellular viability assays according to the general protocol. Seeded cells into 96-well plate and incubated overnight. Seeded an additional 10 wells per cell line in an additional 96-well plate for assessing Time Zero luminescence and incubated overnight. To treatment plates, added compounds into each well using Tecan D300e dispenser (nine three-fold dilutions starting at […]) and incubated for 9 days. Time Zero (no compound treatment, luminescence assessed on day 1) and 9-day treatment (luminescence assessed on day 10) plates were assessed using the same CellTiter-Glo® substrate protocol. Thawed CellTiter-Glo® Buffer and lyophilized CellTiter-Glo® substrate and equilibrated to room temperature prior to use. Transferred 100 ml CellTiter-Glo® Buffer into amber bottle containing CellTiter-Glo® substrate to reconstitute the lyophilized enzyme/substrate mixture. For Time Zero and 9-day treatment plates, removed all plating media. Added 100 μl fresh media/well. Added 100 μl CellTiter-Glo® Reagent per well. Mixed contents for 10 min on an orbital shaker to lyse cells. Recorded luminescence with Perkin Elmer Envision 2105 machine. Analyzed the data with GraphPad software.

Series [2] in a line: MDR1/BCRP assay: permeability in cPgp-KO-MDCK-WT cells. Format: in vitro ADME. The following applies: dog, pH 7.4. Put shortly: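 Compounds at 1 μM were dosed apically or basolaterally on 5-day confluent cPgp-KO-MDCK monolayers, HBSS/HEPES/glucose pH 7.4 donor and receiver with 1% BSA, duplicate wells. Receiver samples at 2 h were analysed by LC-MS/MS to give A→B and B→A Papp plus % recovery; TEER confirmed integrity.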

Series [3] can be described thus: Cell viability assay (CellTiter-Glo, 7 days), HCT116 WT. Format: cell-based. The following applies: human, HCT116 WT cells, 7 days of treatment, CTG. The method, boiled down: (§1)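 Each PRMT5 inhibitor was tested as a dose response alongside tool compounds on the same plate. Incubation ran 7 days at 37 °C under 5% CO2, after which CellTiter-Glo luminescence was recorded and CC50 calculated.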
A general note: ATP-based viability assays read luminescence as a measure of living cells.

The test system of series [4] is HCT116 MTAP-deleted cell lines. Put plainly: Cell viability assay (CellTiter-Glo, 7 days), HCT116 MTAP-deleted. Format: cell-based. The following applies: for Selectivity: HCT116 WT CC50 versus HCT116 MTAP^del CC50; for plasma-adjusted CC50 (paCC50): paCC50 = CC50-HCT116-MTAP^del * (% free CCM/% free human plasma); for CC50: Homo sapiens, HCT116 MTAP-deleted. The method, boiled down:
as §1

Series [5] in a line: PK data (IV/PO) in cynomolgus monkey. The following applies: in vivo; for clearance: read-out: Observed CL (converted); for Vd: read-out: Vss.
Setting [6] is: HCT-116, 168 h, 7 days of treatment, CTG, read-out: CC50-HCT116-MTAP^del.
Setting [7] is: HCT-116, cell viability, class symbols, read-out: CC50.
Where [8] appears, read: HCT-116, * Calculated using Low throughput hEQDS.
[9] abbreviates: HCT-116, cell viability assay, class symbols, read-out: CC50.

`C[C@@H]1CN(C(=O)c2cc3c(cc2F)nc(N)c2cncn23)[C@H]2c3ccc(OC(F)(F)F)cc3C[C@H]2O1` (single isomer, unassigned) [Ff-183]: the GI50 in series [1] came out at 12 nM. In series [2], this molecule came in with a Papp A→B at 2 h, 1 µM of 10.3 ×10⁻⁶ cm/s. The molecule further displayed a CC50 at 7 days in series [3] of 853 nM. The molecule further displayed a Selectivity in series [4] of 57. The same molecule displayed a plasma-adjusted CC50 (paCC50) in series [4] (HCT-116) of 257 nM. Further, the figures for the CC50 in series [4] (setting [6]) and in series [4] (setting [7]) were 15 nM and under 100 nM, respectively.

`Nc1nc2cnc(C(=O)N3CCC[C@@H]4Oc5cc(C(F)(F)F)cc(F)c5[C@@H]43)cc2n2cncc12` (single isomer, unassigned) [Fg-53]: the GI50 in series [1] was 7 nM. Besides, in series [2], the Papp A→B at 2 h, 1 µM was determined as 16.6 ×10⁻⁶ cm/s. This molecule also registered a CC50 at 7 days in series [3] of 503 nM. Moreover, in series [5] (IV 0.25 mg/Kg), the half-life is 15.4 h, the clearance was 2 mL/min/kg and the Vd is 2.53 L/kg. This molecule registered a bioavailability in series [5] (PO 0.5 mg/Kg) of 84%. Besides, the Selectivity in series [4] is 84. The plasma-adjusted CC50 (paCC50) in series [4] (setting [8]) is 139 nM. The CC50 in series [4] (setting [6]) turned out to be 6 nM. Moreover, the CC50 in series [4] (setting [9]) is under 100 nM.

As to `Nc1nc2cnc(C(=O)N3CCC[C@@H]4Oc5cc(OC(F)(F)F)cc(F)c5[C@@H]43)cc2n2cncc12` (single isomer, unassigned) [Fg-55], the GI50 in series [1] worked out at 11 nM. This molecule displayed a Papp A→B at 2 h, 1 µM in series [2] of 9.5 ×10⁻⁶ cm/s. This molecule also registered a CC50 at 7 days in series [3] of 799 nM. In series [5] (IV 0.25 mg/Kg), the half-life is 10.7 h, the clearance was 2.17 mL/min/kg and the Vd came to 2 L/kg. The same molecule displayed a Selectivity in series [4] of 89. Moreover, the plasma-adjusted CC50 (paCC50) in series [4] (setting [8]) is 190 nM. The CC50 in series [4] (setting [6]) amounted to 9 nM. Besides, the CC50 in series [4] (setting [9]) was under 100 nM.

With `Nc1nc2cnc(C(=O)N3CCC[C@@H]4Oc5cc(C(F)(F)F)ccc5[C@@H]43)cc2n2cncc12` [Ff-110, (4-aminoimidazo[1,5-a]pyrido[3,4-e]pyrazin-8-yl)((4aS,9bS)-7-(trifluoromethyl)-3,4,4a,9b-tetrahydrobenzofuro[3,2-b]pyridin-1(2H)-yl)methanone], halving of growth in series [1] (GI50) required 7 nM. In series [2], this molecule displayed a Papp A→B at 2 h, 1 µM of 12.1 ×10⁻⁶ cm/s. In series [3], this molecule registered a CC50 at 7 days of 516 nM. Moreover, the Selectivity in series [4] came out at 86. Moreover, in series [4] (HCT-116), the plasma-adjusted CC50 (paCC50) was determined as 100 nM. Besides, the CC50 was 6 nM in series [4] (setting [6]) and under 100 nM in series [4] (setting [7]).

In series [1], `Nc1nc2ccc(C(=O)N3CCC[C@@H]4Oc5cc(C(F)(F)F)ccc5[C@@H]43)cc2n2cncc12` [Ff-111, (4-aminoimidazo[1,5-a]quinoxalin-8-yl)((4aS,9bS)-7-(trifluoromethyl)-3,4,4a,9b-tetrahydrobenzofuro[3,2-b]pyridin-1(2H)-yl)methanone] displayed a GI50 of 10 nM. Also, the Papp A→B at 2 h, 1 µM in series [2] worked out at 15.3 ×10⁻⁶ cm/s. In series [3], this molecule showed a CC50 at 7 days of 1100 nM. Further, in series [5] (IV 0.33 mg/Kg), the half-life was 5.9 h, the clearance is 2.5 mL/min/kg and the Vd came out at 1.29 L/kg. The molecule further came in with a Selectivity in series [4] of 110. Further, the plasma-adjusted CC50 (paCC50) in series [4] (HCT-116) came to 139 nM. For the same molecule, the CC50 in series [4] (setting [6]) came out at 10 nM. Moreover, in series [4] (setting [7]), the CC50 is under 100 nM.

Molecule `Cc1ncc2c(N)nc3cnc(C(=O)N4CCC[C@@H]5Oc6cc(OC(F)(F)F)ccc6[C@@H]54)cc3n12` [Ff-340, (4-amino-1-methylimidazo[1,5-a]pyrido[3,4-e]pyrazin-8-yl)((4aS,9bS)-7-(trifluoromethoxy)-3,4,4a,9b-tetrahydrobenzofuro[3,2-b]pyridin-1(2H)-yl)methanone] displayed a GI50 in series [1] of 23 nM. In addition, the Papp A→B at 2 h, 1 µM in series [2] turned out to be 16.3 ×10⁻⁶ cm/s. Further, the CC50 at 7 days in series [3] is 2460 nM. In series [5] (IV 0.33 mg/Kg), the half-life is 5.8 h, the clearance is 4 mL/min/kg and the Vd was 1.9 L/kg. The Selectivity in series [4] is 107. In series [4] (HCT-116), this molecule displayed a plasma-adjusted CC50 (paCC50) of 298 nM. In addition, in series [4] (setting [6]), the CC50 turned out to be 23 nM. The CC50 in series [4] (setting [7]) was under 100 nM.

In series [1], `Nc1nc2cnc(C(=O)N3CCC[C@@H]4Oc5cc(OC(F)(F)F)ccc5[C@@H]43)cc2n2cncc12` [Ff-341, (4-aminoimidazo[1,5-a]pyrido[3,4-e]pyrazin-8-yl)((4aS,9bS)-7-(trifluoromethoxy)-3,4,4a,9b-tetrahydrobenzofuro[3,2-b]pyridin-1(2H)-yl)methanone] registered a GI50 of 14 nM. The Papp A→B at 2 h, 1 µM in series [2] turned out to be 10.3 ×10⁻⁶ cm/s. This molecule had a CC50 at 7 days in series [3] of 710 nM. Besides, in series [5] (IV 0.25 mg/Kg), the half-life is 8 h, the clearance was 3.33 mL/min/kg and the Vd came out at 2.15 L/kg. The Selectivity in series [4] is reported as 79. The plasma-adjusted CC50 (paCC50) in series [4] (HCT-116) worked out at 150 nM. Besides, the half-maximal cytotoxic concentration (CC50) in series [4] (setting [6]) stood at 9 nM. Further, the CC50 in series [4] (setting [7]) was under 100 nM.

`Nc1nc2cnc(C(=O)N3CC4(CC4)C[C@@H]4Oc5cc(C(F)(F)F)ccc5[C@@H]43)cc2n2cncc12` [Ff-648, (4-aminoimidazo[1,5-a]pyrido[3,4-e]pyrazin-8-yl)((4aS,9bS)-7-(trifluoromethyl)-4a,9b-dihydro-2H-spiro[benzofuro[3,2-b]pyridine-3,1′-cyclopropan]-1(4H)-yl)methanone]: the GI50 in series [1] came out at 8 nM. The molecule also registered a Papp A→B at 2 h, 1 µM in series [2] of 10.9 ×10⁻⁶ cm/s. The molecule further yielded a 50% cytotoxic concentration (CC50) at 7 days in series [3] of 650 nM. In series [4], this molecule gave a Selectivity of 72. The plasma-adjusted CC50 (paCC50) in series [4] (HCT-116) was determined as 262 nM. The CC50 was 9 nM in series [4] (setting [6]) and under 100 nM in series [4] (setting [9]).

A word on the GI50: it is the concentration at which growth is held to half of that of the control. As a reminder, the Papp A→B is the apparent permeability from the apical to the basolateral side of a cell layer. In general, CC50 refers to the concentration at which the toxic effect on the cells reaches its halfway point. A word on the half-life: it is the time needed for the level to fall by half in the phase considered. For orientation: bioavailability means the share of a dose that reaches the circulation, judged against a reference dose that is usually intravenous.
